One block for each molecule: values may come before it.
Experiments:
[1] = test system: non-alcoholic steatohepatitis C57BL/6 mouse model induced by the methionine and choline deficient (MCD) diet; assay: Non-alcoholic steatohepatitis treatment model (MCD diet), 6 weeks repeated oral administration; assay type: in vivo, C57BL/6 mice; conditions: for LDL level (blood biochemical test) / oil red O staining area level: p<0.01
From the text: The MCD model, which is an animal model of steatohepatitis, was used. C57BL/6 mice were supplied with a MCD (methionine-choline deficient) diet for 5 days, followed by a normal diet for 2 days. In this way, for 10 weeks, the MCD diet and normal diet were alternately supplied. Animals were identified using tail marks during the acclimatization period (blue), dosing and observation period (red). Individual identification cards, distinguished by color, were attached to the breeding box, and an animal room usage record was attached to the entrance of the breeding room.
During the acclimatization period, blood biochemical tests and body weight measurements were performed. Mice were randomly distributed so that the average of each group was distributed as uniformly as possible according to the ranked ALT and body weight levels. [10 animals in the normal feed group (G1), 40 animals in the MCD diet group (G2-G5)]
The improvement effect that appeared when the test compound was repeatedly administered for 6 weeks to the non-alcoholic steatohepatitis C57BL/6 mouse model induced over 10 weeks with the MCD diet was evaluated. Test compound was administered once a day for 6 weeks. As a positive control, obeticholic acid (hereinafter referred to as OCA), which is currently undergoing a phase 3 clinical trial with non-alcoholic steatohepatitis as an indication, was used.
In the case of a control compound (obeticholic acid, 10 mg/kg/day), an appropriate amount was weighed and then diluted in sterile distilled water and administered. In the case of the test compound, after weighing the appropriate amount, it was diluted with 0.5 wt % methyl cellulose aqueous solution to which 1 wt % Tween 80 was added. During oral administration, the weight of the mouse was measured, and the animals were fixed using the cervical skin fixation method, and each test compound was administered using a sonde for oral administration.
It was measured at the start of administration, and once a week and on the day of autopsy after the start of administration.
It was measured right before the start of administration, and once a week after the start of administration of the test compound. As for the measurement method, the remaining amount of feed was measured per unit of breeding box next day after quantitative feeding, the difference was calculated, and the average intake per mouse was calculated.
The following items were tested using a blood biochemical analyzer (7180 Hitachi, Japan) with blood collected and separated at right before and the 6th week (the day of autopsy) after administration of the test compound.
Six weeks after administration of the test compound: ALT (alanine transaminase), AST (aspartate transaminase), TG (triglyceride), TCHO (total cholesterol), HDL (high-density lipoprotein), LDL (low-density lipoprotein), GGT (Gamma-glutamyltransferase), LDH (Lactate dehydrogenase)
On the day of autopsy, pimonidazole was diluted in saline at a concentration of 30 mg/ml, and then administered intravenously at a dose of 60 mg/kg. Animals were euthanized 90 minutes after administration. At each autopsy, the animals were inhaled with ether, and when anesthesia was confirmed, blood was collected from the posterior vena cava using a syringe. Thereafter, the abdominal aorta and posterior vena cava were cut, bleeding, and killed. Blood was injected into a vacutainer tube containing a clot activator, allowed to stand at room temperature for about 15 minutes to coagulate, and then centrifuged at 3,000 rpm for 10 minutes to separate the serum. Serum was stored in a deep freezer set at −70° C. or lower before analysis, and was used for blood biochemical tests.
At autopsy, the liver was excised and weighed, the right lobe of the liver was fixed in 10% neutral buffered formalin solution, and the left lobe was divided into half and rapidly frozen using liquid nitrogen. The quick-frozen specimens were stored in a cryogenic freezer set at −70° C. or lower until ELISA analysis. […]

[2] = single administration and combined administration with metformin; cited from earlier work
[3] = Tissue concentration after oral administration to the mouse; assay type: in vivo; conditions: 2 hours after oral administration
[4] = test system: non-alcoholic steatohepatitis prevention model, MCD feed, mice (C57BL/6); assay: Non-alcoholic steatohepatitis prevention model (MCD feed with simultaneous administration for 12 weeks); assay type: in vivo; conditions: 12 weeks with MCD feed, vs vehicle control group (G2)
Protocol: The efficacy of the test compound for preventing non-alcoholic steatohepatitis was evaluated. Using 7-week-old mice (C57BL/6), the normal group (G1) was supplied with general feed, and the vehicle control group (G2), positive control group (G3), and test groups (G4, G5) were supplied with the MCD feed for 12 weeks. Simultaneously with the MCD diet, test compounds and controls were administered orally once a day. Mice were divided into five groups, and a total of 75 mice, 15 mice per each group, were used for the experiment.
In order to evaluate the prophylactic efficacy, the test compound was administered for 12 weeks at the same time as induction with the MCD diet, and the efficacy of the test compound for the prevention of steatohepatitis was evaluated.
Each appropriate amount of the control compound (Obeticholic acid, 10 mg/kg/day) and the test compound was weighed, and then diluted in 0.5 wt % methyl cellulose aqueous solution to which 1 wt % Tween 80 was added. During oral administration, the weight of the mouse was measured, and the animals were fixed using the cervical skin fixation method, and each test substance was administered using a sonde for oral administration. […]

[5] = clinical trials; cited from earlier work
[6] = 10 mg/kg/day (G4), vs vehicle control group (G2)
[7] = 30 mg/kg/day (G5), vs vehicle control group (G2)

concentration of the liver tissue compared with plasma concentration [3]: higher than the plasma concentration
SMILES: C[C@@H]1CN(c2ccc(S(C)(=O)=O)cc2F)CCN1c1nccc(C(=O)N[C@H]2C3CC4CC2C[C@](O)(C4)C3)n1 [Chemical Formula 1, 2-((R)-4-(2-fluoro-4-(methylsulfonyl)phenyl)-2-methylpiperazin-1-yl)-N-((1R,2s,3S,5S,7S)-5-hydroxyadamantan-2-yl)pyrimidine-4-carboxamide]
ALT level (blood biochemical test) ([1]; 10 mg/kg/day (G3, G4) oral once a day, vs vehicle control group (G2), p<0.05): significantly lower
Hydroxyproline expression area level ([1]; 10 mg/kg/day (G3, G4), vs normal control group (G1), p<0.001 or p<0.05): significantly higher
Hydroxyproline expression area level ([1]; 10 mg/kg/day (G3, G4), vs vehicle control group (G2), p<0.001 or p<0.01): significantly lower
TCHO level in liver tissue (ELISA) [1, 6]: significantly lower
TG level in liver tissue (ELISA) [1, 6]: significantly lower
LDL level (blood biochemical test) ([1]; 10 mg/kg/day (G4), vs vehicle control group (G2) and positive control group (G3)): significantly lower
oil red O staining area level ([1]; 10 mg/kg/day (G4), vs vehicle control group): significantly lower
ALT level (blood biochemical test) ([1]; 30 mg/kg/day (G5) oral once a day, vs vehicle control group (G2), p<0.001 or p<0.05): significantly lower
TCHO level in liver tissue (ELISA) [1, 7]: significantly lower
TG level in liver tissue (ELISA) [1, 7]: significantly lower
LDL level (blood biochemical test) ([1]; 30 mg/kg/day (G5), vs vehicle control group (G2) and positive control group (G3)): significantly lower
relative liver weight level ([1]; 30 mg/kg/day (G5), vs vehicle control group (G2) and positive control group (G3), p<0.01 or p<0.05): significantly lower
Hydroxyproline expression area level ([1]; 30 mg/kg/day (G5), vs vehicle control group (G2), p<0.001 or p<0.01): significantly lower
AST level (blood biochemical test) ([1]; 30 mg/kg/day (G5), vs vehicle control group (G2), p<0.001 or p<0.05): significantly lower
liver weight level (absolute) ([1]; 30 mg/kg/day (G5), vs vehicle control group (G2), p<0.05): significantly lower
oil red O staining area level ([1]; 30 mg/kg/day (G5), vs vehicle control group): significantly lower
microvesicular steatosis level (histopathology) ([1]; 30 mg/kg/day (G5), vs vehicle control group, p<0.05): significantly lower
effect of alleviating non-alcoholic steatohepatitis ([1]; 30 mg/kg/day, compared to positive control compound): superior
blood biochemistry, liver relative weight, TG and TCHO content in liver tissue, and microvesicular steatosis level ([1]; high dose administration group, vs positive control group): lower than those of the positive control group
LDH (FIG. 2) ([1]; high-dose administration group, compared to normal group): concentration similar to that of the normal group
levels of inflammation (histopathology) ([1]; test compound administration group, vs vehicle control group): lower levels of inflammation
LDH (FIG. 2) ([1]; test compound groups, compared to the positive control group): tends to decrease LDH
efficacy as therapeutic agent for type 2 diabetes [2]: did not show sufficient efficacy
triglycerides in liver tissue ([4]; 10 mg/kg/day (G3, G4) oral once a day): statistically significant decrease
triglycerides in liver tissue ([4]; 30 mg/kg/day (G5) oral once a day): statistically significant decrease

SMILES: CC[C@H]1[C@@H](O)[C@@H]2[C@H](CC[C@]3(C)[C@@H]([C@H](C)CCC(=O)O)CC[C@@H]23)[C@@]2(C)CC[C@@H](O)C[C@@H]12 [OCA, obeticholic acid]
subjects showing stomach pain and fatigue [5]: more than 10%
subjects with side effects like irregular heartbeat, dry skin, constipation, joint pain, peripheral edema, sore throat, thyroid hormone irregularity, rash [5]: about 10%
